Among the data in PubChem BioAssay AID1159564 (GlaxoSmithKline (GSK), 2015) are IC50 values, retold here.

The test system of this assay is L. donovani-infected THP-1 macrophages, intracellular amastigote imaging. In words: intracellular L. donovani amastigote inhibition, imaging, THP-1 host macrophages, host toxicity (AID 1159564).
[1] abbreviates: measured here: THP-1 host cell toxicity.
Where [2] appears, read: measured here: amastigotes per macrophage.

What is called IC50 is the concentration needed to halve the response being measured.

Calls of active or inactive are those of the source. How the calls were made is not given here.

In the case of `O=S(=O)(NCC(c1cccnc1)N1CCN(c2ccccc2F)CC1)c1ccc(F)cc1` (configuration not stated), the IC50 is > 50 µM (inactive). The same compound displayed an IC50 under setting [1] of more than 50 µM. Further, the IC50 under setting [2] was found to be 4 µM.

On to `O=C(N[C@H](CO)c1ccccc1)c1ccc(-c2c[nH]c3nccc(C(F)(F)F)c23)s1`, for which the concentration for half-maximal inhibition (IC50) was 25 µM. The compound also gave an IC50 under setting [1] of 13 µM. Under setting [2], this compound registered an IC50 of 16 µM.

Consider `CN(Cc1nc2ccc(C(=O)NCC3CCCCC3)cc2[nH]1)C1CCCc2cccnc21` (configuration not stated), for which the IC50 was 0.5 µM. This compound also returned an IC50 under setting [1] of 6.3 µM. Under setting [2], this compound had an IC50 of 0.4 µM.

Turning to `CS(=O)(=O)NC1CCC(Nc2ncc(Br)c(Nc3ccccc3C(N)=O)n2)CC1` (configuration not stated), the IC50 is 2 µM. Further, the IC50 under setting [1] stood at 0.5 µM. Under setting [2], this compound returned an IC50 of 0.79 µM.

`O=C(c1cc2cc(Cl)ccc2[nH]1)N1CCCCC1c1cccnc1` (configuration not stated): the IC50 was 32 µM. Further, the IC50 under setting [1] came out at 16 µM. The compound also gave an IC50 under setting [2] of 10 µM.

As for `COc1ccc(C(=O)N2CCC(Nc3cccnc3)C2)c(OC)n1` (configuration not stated), the IC50 was > 50 µM (inactive). This compound also showed an IC50 under setting [1] of more than 50 µM. Also, the IC50 under setting [2] was more than 50 µM.

With `Cn1nc(C(=O)N2CCc3ccccc32)c2c1CCS(=O)(=O)C2`, the IC50 was 4 µM. This compound also returned an IC50 under setting [1] of more than 50 µM. The IC50 under setting [2] was found to be 1.6 µM.

Regarding `COc1ccc(S(=O)(=O)Nc2ccc(C(=O)Nc3nc(-c4ccccn4)cs3)cc2)cc1`, the IC50 was 0.4 µM. For the same compound, under setting [1], the IC50 was found to be 10 µM. This compound came in with an IC50 under setting [2] of 0.16 µM.

Take `CC(C)(C)c1cc(NC2CC2)nc(-c2ccccn2)n1`: the IC50 was 2.5 µM. The IC50 under setting [1] was determined as 25 µM. For the same compound, under setting [2], the IC50 is 1.6 µM.

On to `CCC(=O)Nc1ccc(-c2nc3ccc(Cl)cc3[nH]2)cc1`, for which the IC50 is > 50 µM (inactive). Also, the IC50 under setting [1] was more than 50 µM. The same compound yielded an IC50 under setting [2] of more than 50 µM.

Regarding `COc1ccc(NS(=O)(=O)c2ccc(S(=O)(=O)N(C)C3CCCCC3)cc2)c2ncccc12`, the IC50 is 0.32 µM. In addition, the IC50 under setting [1] was more than 50 µM. Also, the IC50 under setting [2] was 0.16 µM.

Take `COc1ccc(-c2nc3ncccc3o2)cc1NC(=O)c1cccs1`: the IC50 was > 50 µM (inactive). Further, the IC50 under setting [1] was determined as 20 µM. In addition, the IC50 under setting [2] was more than 50 µM.

With `CNc1cncc(C2CCCN2C(=O)Cc2coc3cc(C)ccc23)n1` (configuration not stated), the IC50 is > 50 µM (inactive). Also, under setting [1], the IC50 is more than 50 µM. This compound also had an IC50 under setting [2] of 0.79 µM.

Take `O=C(Cc1ccccc1)Nc1[nH]nc2sc(C(=O)NC3CCCC3)cc12`: the IC50 was 3.2 µM. The compound also showed an IC50 under setting [1] of 1.6 µM. Also, the IC50 under setting [2] stood at 1.6 µM.

For `COc1ccc(NC(=O)c2ccc(NC(=O)CN(c3ccccc3C)S(C)(=O)=O)cc2)cc1`, the IC50 was > 50 µM (inactive). This compound returned an IC50 under setting [1] of more than 50 µM. Besides, the IC50 under setting [2] amounted to 7.9 µM.

Turning to `O=c1[nH]cnc2c([C@@H]3O[C@H](CO)[C@@H](O)[C@H]3O)[nH]nc12`, the IC50 is 2 µM. The same compound came in with an IC50 under setting [1] of more than 50 µM. Under setting [2], this compound gave an IC50 of 0.4 µM.

With `CCc1cccc(-n2nc(OCC(=O)NC3CCCC3)c3cccnc32)c1`, the IC50 was 1 µM. The same compound gave an IC50 under setting [1] of less than 50 µM. The same compound came in with an IC50 under setting [2] of 1.3 µM.

Take `CCN(CC)c1nc(Nc2ccncc2)nc2ccccc12`: the IC50 is 6.3 µM. For the same compound, under setting [1], the IC50 was determined as 25 µM. Under setting [2], this compound registered an IC50 of 2 µM.

Take `Cc1nc(N2CCC(C(=O)N3CCC(O)(c4cccnc4)CC3)CC2)nc2ccc(C(C)C)cc12`: the IC50 was 50 µM. Further, the IC50 under setting [1] worked out at 25 µM. The half-maximal inhibitory concentration (IC50) under setting [2] stood at 10 µM.

As for `Cc1ccc2c(c1)-c1onc(C(=O)N3CCCCC3c3cccnc3)c1CO2` (configuration not stated), the IC50 was > 50 µM (inactive). Under setting [1], this compound yielded an IC50 of 40 µM. For the same compound, the IC50 under setting [2] amounted to 40 µM.

On to `CCOC(=O)c1noc(N)c1-c1ccccc1`, for which the IC50 is > 50 µM (inactive). This compound also had an IC50 under setting [1] of more than 50 µM. In addition, under setting [2], the IC50 was more than 50 µM.

On to `Cc1ccccc1NS(=O)(=O)c1ccc2[nH]cc(C(=O)NC3CCCC(C)C3C)c(=O)c2c1` (configuration not stated), for which the IC50 is 16 µM. The same compound came in with an IC50 under setting [1] of 13 µM. The compound further came in with an IC50 under setting [2] of 16 µM.

For `Cc1cc(Nc2ccc(C#N)c(Cl)c2C)n[nH]1`, the IC50 is > 50 µM (inactive). For the same compound, the IC50 under setting [1] worked out at 20 µM. Further, the IC50 under setting [2] was more than 50 µM.

With `COc1ccccc1C(=O)Nc1nnc(-c2ccc3c(c2)OCO3)s1`, the IC50 is 1 µM. The compound also had an IC50 under setting [1] of 16 µM. Moreover, under setting [2], the IC50 was 0.63 µM.

Regarding `COc1ccc(Cc2nc(-c3ncc4cccnc4c3O)n[nH]2)cc1OC`, the IC50 was 3.2 µM. For the same compound, the IC50 under setting [1] amounted to 20 µM. For the same compound, the IC50 under setting [2] amounted to 2.5 µM.

`Cc1ccc2ccc(C(Nc3ccccn3)c3cccnc3)c(O)c2n1` (configuration not stated): the IC50 is 13 µM. For the same compound, under setting [1], the IC50 was more than 50 µM. The IC50 under setting [2] is 7.9 µM.

For the compound `O=C(Nc1cccc(Cl)c1)Nc1ccc([N+](=O)[O-])cc1Cl`, the IC50 was 3.2 µM. Under setting [1], this compound came in with an IC50 of 25 µM. This compound also registered an IC50 under setting [2] of 2 µM.

Take `CN(CC1CCCO1)S(=O)(=O)c1ccc(C(=O)Nc2nc(-c3ccccn3)cs2)cc1` (configuration not stated): the IC50 is 6.3 µM. In addition, the IC50 under setting [1] amounted to 7.9 µM. Besides, the IC50 under setting [2] came out at 3.2 µM.

`Cc1cccc(NS(=O)(=O)c2cnc3sc(C)cn3c2=O)c1`: the IC50 is > 50 µM (inactive). Under setting [1], this compound showed a concentration for half-maximal inhibition (IC50) of more than 50 µM. For the same compound, the IC50 under setting [2] turned out to be 5 µM.

With `CC(=Cc1ccccc1)CN1CCC(=O)N(Cc2cccnc2)CC1`, the IC50 was > 50 µM (inactive). Also, under setting [1], the IC50 turned out to be 40 µM. Besides, the IC50 under setting [2] stood at 32 µM.

As for `CCc1cc(C(=O)Nc2nccn2-c2ccccc2)cs1`, the IC50 is 13 µM. This compound also came in with an IC50 under setting [1] of 32 µM. Under setting [2], this compound gave an IC50 of 5 µM.

Take `COc1cc(F)c2ncc(F)c(CCN3CC[C@H](NCc4cc5c(cn4)OCS5)[C@@H](O)C3)c2c1`: the IC50 was 16 µM. The IC50 under setting [1] came to 16 µM. Further, the IC50 under setting [2] amounted to 13 µM.

For the compound `CCOc1ccc(NC(=O)C=Cc2ccc(CC)o2)cc1`, the IC50 is 50 µM. The same compound had an IC50 under setting [1] of 20 µM. Under setting [2], the IC50 amounted to 25 µM.

Regarding `CCN(CC)S(=O)(=O)c1ccc(Cn2nc(C(=O)Nc3ccncn3)c3ccccc32)cc1`, the IC50 was > 50 µM (inactive). In addition, the IC50 under setting [1] is more than 50 µM. Under setting [2], this compound registered an IC50 of more than 50 µM.

For the compound `OC[C@@H](Nc1nccc(-c2c(-c3ccc(F)cc3)ncn2C2CCNCC2)n1)c1ccccc1`, the IC50 was 32 µM. Besides, the IC50 under setting [1] was 32 µM. The compound further returned an IC50 under setting [2] of 32 µM.

As to `O=C(O)[C@H]1C[C@@H]1c1ccc(-c2ccc(CN(CCc3ccccn3)C(=O)C3CCC3)cc2)cc1`, the IC50 is > 50 µM (inactive). Besides, the IC50 under setting [1] was more than 50 µM. The IC50 under setting [2] was more than 50 µM.

As for `Cc1[nH]c2ccccc2c(=O)c1Cc1c(C)[nH]c2ccccc2c1=O`, the IC50 was > 50 µM (inactive). Under setting [1], this compound showed an IC50 of more than 50 µM. Further, under setting [2], the IC50 is more than 50 µM.

Consider `COc1cc(C(C)C)c(S(C)(=O)=O)cc1C(=O)N1CCN(c2ccccc2Cl)CC1`, for which the IC50 was 16 µM. Further, the IC50 under setting [1] stood at 16 µM. The same compound showed an IC50 under setting [2] of 13 µM.

`COc1ccc(Nc2nccc(N(C)c3n[nH]c4c(F)cccc34)n2)cc1S(C)(=O)=O`: the IC50 is 2.5 µM. Besides, under setting [1], the IC50 was found to be 10 µM. This compound also yielded an IC50 under setting [2] of 1 µM.
